Measured values from patent publication US11311552B2, “Therapies for cancer” (PROXIMAGEN, LLC, priority 2015, dated 2022).

Legend:
Assay type in all cases: in vivo
[1] = system: haematopoietic stem cells (HSCs) and progenitor cells (CFU-GEMM); experiment: mobilisation of haematopoietic progenitor cells in mice (FIG. 1); settings: assessed 1 hour later, vs vehicle
Description: FIG. 1 is a graph showing the degree of mobilisation of haematopoietic stem cells (HSCs) and progenitor cells (CFU-GEMM) in mice following injection of vehicle, AMD3100 (5 mg/kg) and 6-{4-[1-(Propan-2-yl)piperidin-4-yl]-1,4-diazepan-1-yl}-N-(pyridin-4-yl)pyridine-2-carboxamide (30 mg/kg).
In the experiment represented by FIG. 1, groups of 5 mice were injected with vehicle, AMD3100 (5 mg/kg) or injected sub cutaneously with 6-{4-[1-(Propan-2-yl)piperidin-4-yl]-1,4-diazepan-1-yl}-N-(pyridin-4-yl)pyridine-2-carboxamide (30 mg/kg) and the mobilisation of haematopoietic progenitor cells assessed 1 hour later. The data are expressed for the multipotential GEMM cells as colony forming units per ml of peripheral blood.

[2] = system: human glioblastoma cell line (T98G); experiment: T98G subcutaneous xenograft growth in nude mice (FIG. 2, 3)
Description: The solid line represents the control (i.e. untreated). The data in FIG. 2 are presented as % of the tumours progressing in groups of 8-10 mice, where progression is defined as a 20% increase in tumour volume. Tumour volume was determined by measuring the width and depth of the tumour with calipers, and then calculating the volume. […] After 15 days all of the control mice had progressed, whereas none of the mice treated with 6-{4-[1-(Propan-2-yl)piperidin-4-yl]-1,4-diazepan-1-yl}-N-(pyridin-4-yl)pyridine-2-carboxamide had done so. Inhibition of growth of human glioblastoma cell line (T98G) in nude mice is expected to be predictive of a beneficial therapeutic outcome in human cancer patients, including patients suffering from glioblastoma and astrocytoma.
After the subcutaneous tumours had grown to at least 120 mm^3 the mice were randomised into groups and treated with temozolomide (16 mg/kg po daily for 5 days) and 6-{4-[1-(Propan-2-yl)piperidin-4-yl]-1,4-diazepan-1-yl}-N-(pyridin-4-yl)pyridine-2-carboxamide (50 mg/kg, once per day by oral gavage, for 5 days every week, dotted line).
The data are presented in FIG. 3 as % of the tumours progressing in groups of 8-10 mice, where progression is defined as a 20% increase in tumour volume.

[3] = system: human glioblastoma cell line (U87MG); experiment: orthotopic (intracranial) U87MG tumours in nude mice: survival and time to progression by luminescence (FIG. 4-10)
Description: The experiments represented by FIGS. 4, 5, and 6 had the same control (i.e. vehicle only), and therefore the same control data. For improved clarity, the line representing the control data has been removed from FIGS. 5 and 6, but retained in FIG. 4.
Nude mice were immobilized on a stereotaxic apparatus and anaesthetized. The operative field was prepared with betadine. A small hole was made at 1.0 mm anterior and 2 mm lateral to the exposed bregma. A sterile 5 μL Hamilton syringe with a 26 gauge needle was inserted at a depth of 3.0 mm from the skull surface and withdrawn by 0.5 mm to inject 3×10^3 U87MG cells in a volume of 3 μL. The injection rate was set up to 1 μL/min. After the implantation of the tumour cells, the needle was left in place for 5 min to prevent reflux. The needle was then completely withdrawn from the brain over the course of […] (1.0 mm/min), and the skin was sutured. Just before treatment initiation (5 days after injection), animals were randomized to treatment groups of 10 mice each. A small amount of cells was chosen (3×10^3) to simulate a chemo-radiotherapic treatment made after surgery in which a low number of tumour cells remain in the operatory bed, re-grow and give arise to a recurrence. Treatments were started 5 days after cell injection when no luciferase activity was detectable intracranially, and continued for 35 days. Time to progression (i.e. detection of luminescence) was assessed, and the mice followed for up to 180 days. […] The y axis parameter ‘survival’ is the percentage of mice not yet euthanized. The y axis parameter ‘probability of detection’ is the percentage of mice having a tumour that has progressed to the stage where luminescence is detected.
The following dosage administrations were used: 6-{4-[1-(Propan-2-yl)piperidin-4-yl]-1,4-diazepan-1-yl}-N-(pyridin-4-yl)pyridine-2-carboxamide was dosed at 50 mg/kg po once daily. Bevacizumab was dosed at 4 mg/kg iv every 4 days. Temozolomide was dosed at 32 mg/kg po daily. Sunitinib was dosed at 40 mg/kg po daily. Radiotherapy consisted of 3×2Gy daily.
For this experiment, 5×10^3 U87MG cells were injected using the technique described above. Following injection of the U87MG cells, tumours were detectable in the mice, which were treated for 28 days.

SMILES | mobilisation of HSCs from the mouse bone marrow (CFU-GEMM, colony forming units per ml of peripheral blood) ([1]; 30 mg/kg sub cutaneously) | mice with tumour progression (20% increase in tumour volume) after 15 days ([2]; 50 mg/kg once per day by oral gavage, 5 days every week, all control mice had progressed) | growth of T98G subcutaneous xenografts compared to control ([2]; alone, 50 mg/kg once per day by oral gavage, 5 days every week) | anti-tumour efficacy on T98G subcutaneous xenografts (% of tumours progressing) ([2]; combination: 50 mg/kg po once per day 5 days every week + temozolomide 16 mg/kg po daily for 5 days) | delay of tumour growth (probability of detection), HR ([3]; alone, 50 mg/kg po once daily, p<0.001, FIG. 9A/9B) | delay of growth of the tumour to a size detectable through luminescence, H.R. ([3]; alone, 50 mg/kg po once daily, to vehicle, FIG. 8A/8B) | survival, HR ([3]; combination with Bevacizumab 4 mg/kg iv every 4 days, 50 mg/kg po once daily, vs vehicle, p=0.002, FIG. 4) | time taken for progression of tumours (detection by luminescence), HR ([3]; combination with Bevacizumab 4 mg/kg iv every 4 days, vs vehicle, p=0.0001, FIG. 8A) | survival, HR ([3]; combination with Sunitinib 40 mg/kg po daily, 50 mg/kg po once daily, vs vehicle, p=0.2, FIG. 7) | time taken for progression of tumours (detection by luminescence), HR ([3]; combination with Sunitinib 40 mg/kg po daily, vs vehicle, p=0.0001, FIG. 8B) | survival, HR ([3]; combination with Temozolomide 32 mg/kg po daily, 50 mg/kg po once daily, vs Temozolomide alone, p=0.02, FIG. 5) | survival, HR ([3]; combination with irradiation and temozolomide, 5x10^3 U87MG cells, tumours detectable, treated for 28 days, p=0.025, FIG. 10) | survival, HR ([3]; combination with radiotherapy 3x2Gy daily, 50 mg/kg po once daily, vs radiotherapy alone, p=0.0002, FIG. 6) | delay of tumour growth (probability of detection), HR ([3]; irradiation (3x2Gy daily) alone vs combination with irradiation, p=0.0001, FIG. 9A) | delay of tumour growth (probability of detection), HR ([3]; temozolomide (32 mg/kg po daily) alone vs combination with temozolomide, p=0.01, FIG. 9B) | mobilisation of HSCs from the mouse bone marrow (CFU-GEMM, colony forming units per ml of peripheral blood) ([1]; 5 mg/kg, P<0.05)
CC(C)N1CCC(N2CCCN(c3cccc(C(=O)Nc4ccncc4)n3)CC2)CC1 [6-{4-[1-(Propan-2-yl)piperidin-4-yl]-1,4-diazepan-1-yl}-N-(pyridin-4-yl)pyridine-2-carboxamide] | does not result in significant mobilisation | none | inhibits the growth | synergistic | 3.7 | 3.5 | 3.4 | 9.7 | 1.6 | 5.3 | 2.8 | 2.3 | 4.0 | 4.6 | 2.9 | –
c1cc(CN2CCCNCCNCCCNCC2)ccc1CN1CCCNCCNCCCNCC1 [AMD3100, reference compound] | – | – | – | – | – | – | – | – | – | – | – | – | – | – | – | significantly greater than that caused by vehicle
